Results from patent US20260373102A1, “INJECTABLE GUANFACINE FORMULATIONS AND METHODS” (Cumberland Pharmaceuticals Inc., priority 2023, published 2026).
Counter-ions that a name gives are not always drawn. Like-named read-outs stand apart in the source and are kept apart here.

Assays:
Type in all cases: physicochemical
[1] = Compatibility of Guanfacine with Ropivacaine (appearance, pH, particulate matter); details: for Particulate Matter 10 μm / Particulate Matter 25 μm: Guanfacine only in WFI, filtered, before mixing; for concentration of Guanfacine freebase in the WFI control: HPLC
Method: The compatibility of 1.0 mg/mL and 0.1 mg/mL solutions of Guanfacine diluted into 30 mL Ropivacaine (USP 5 mg/mL Hospira, Lot-48-031-DK) was tested. A 0.1 and 1.0 mg/mL solution of Guanfacine free base in water for injection (WFI) was prepared. For every 1.148 mg of Guanfacine-HCl there is 1 mg of Guanfacine free base. For the 0.1 mg/mL solution, 57.4 mg of Guanfacine-HCl (lot #CPL-01-2013-014-033 Laxai Avanti) was dissolved in 400 mL of WFI (Hospira 1000 mL Bag, Lot 51-114-JT). Once fully dissolved, the solution was transferred to a 500 mL volumetric flask and q.s. to volume. For the 1.0 mg/mL solution, 114.8 mg of Guanfacine-HCl was dissolved in 80 mL of WFI. Once fully dissolved, the solution was transferred to a 100 mL volumetric flask and q.s. to volume.
Two glass vials were rinsed with WFI three times and emptied. The vials were rinsed with filtered Guanfacine solution three times, 5 mLs at a time. Approximately 35 mLs of the Guanfacine solutions were filtered into the vials using a Millex GV Sterile PVDF 0.22 μm syringe filter. The particulate content in the filtered Guanfacine solutions was determined prior to adding to the Ropivacaine vial using an APSS Liquiliaz particle counter. 1.2 mLs of filtered Guanfacine solutions at 0.1 or 1.0 mg/mL were injected into three separate vials containing Ropivacaine for each concentration (1:25 dilution of Guanfacine:Ropivacaine). The concentration of Guanfacine freebase in the WFI control was 0.10 mg/mL and 1.05 mg/mL, as determined by HPLC. The compatibility solutions were not able to be analyzed by the HPLC assay for Guanfacine because Guanfacine and Ropivacaine have very similar elution times and only the Ropivacaine peak could be seen on the chromatogram.
The appearance, pH, and particulate content for one vial at each concentration at time zero, 4 to 6 hours, and 24 hours was assessed and the results are reported in Table 1, below.

[2] = Chemical stability of Guanfacine solutions in WFI at room temperature (vials, IV bags; HPLC); details: for degraded at 72 h: 0.5 mg/mL
Method: Guanfacine HCl powder (Laxai Avanti, Lot CPL-01-2013-014-033) was dissolved in WFI at a concentration of 0.5 mg/mL, passed through a 0.22 μm PVDF membrane in a biosafety cabinet, and then filled into 20 mL glass vials (particle free), or 150 ml polyolefin IV bags. The vials and IV bags were stored at room temperature conditions. The Guanfacine solutions in the vials and IV bags were at pH 5.7 and 5.0, respectively. After 72 hours at room temperature the Guanfacine solution in the vials formed a degradation product at 0.23% and the Guanfacine solution in the IV bags formed a degradation product at 0.16%.
Additionally, Guanfacine HCl (Laxai Avanti, Lot CPL-01-2013-014-033) was dissolved in WFI to a final concentration of 1.14 mg/mL, pH 4.5, passed through a 0.22 μm PVDF membrane in a biosafety cabinet, and then filled into glass vials. The glass vials were stored at room temperature conditions.

[3] = Guanfacine solubility at pH 7.0 and 8.0; details: for solubility at 1 h: sodium phosphate buffer, aqueous buffer, 0.22 μm filtered, HPLC, read-out: concentration of filtered sample (solubility)
Method: Stock solutions of acetic acid and sodium acetate were used for making another pH 4.0 sample and a pH 5.0 sample. For the pH 4.0 sample, 920 μL of acetic acid was added to 80 μL of sodium acetate and then the final solution was prepared as described above to achieve a 5 mM buffer concentration. For the pH 5.0 sample, 700 μL of acetic acid was added to 1,300 μL of sodium acetate and 1.0 mLs of that buffer stock solution was added to make a final buffer concentration of 20 mM. With the exception of the buffer concentration, the pH 5.0 sample solution was completed as described above. Another sample solution was also made at 20 mM sodium acetate, pH 5.0, except the solvent was sparged with nitrogen and the head space of the vial was purged with nitrogen just prior to stoppering in order to remove air from the sample. For the pH 6.0 sample, a stock solution with 1,840 μL of 0.5 M sodium phosphate monobasic and 160 μL of 0.5 M sodium phosphate dibasic was made that was then diluted to 10 mM sodium phosphate by adding 1.0 mL to a final of 50 grams of solution. The solution was then completed as described previously.
Follow up testing was done to confirm that Guanfacine solubility was lower at pH 7.0 and 8.0 compared to the other samples made at pH levels≤6.0. For the pH 7.0 sample, a stock solution of 0.192 mL of 0.5 M sodium phosphate monobasic and 0.208 mLs of 0.5 M sodium phosphate dibasic was added to a glass tube followed by ~8.0 mLs of WFI and ~11.5 mg of Guanfacine-HCl. The solution was then adjusted to pH 7.0 with a solution of 0.2 N NaOH and adjusted to a volume of 10 mLs with WFI. For the pH 8.0 sample, a stock solution of 0.028 mL of 0.5 M sodium phosphate monobasic and 0.372 mLs of 0.5 M sodium phosphate dibasic was added to a glass tube followed by ~8.0 mLs of WFI and 11.48 mg of Guanfacine-HCl. The solution was then adjusted to pH 8.0 with a solution of 0.2 N NaOH and adjusted to a volume of 10 mLs with WFI. […] After 1 hour of sonication both samples were then filtered through a 0.22 μm PVDF filter and analyzed by HPLC. The concentration of the filtered pH 7.0 sample was ~0.35 mg/mL and the concentration of the filtered pH 8.0 sample was ~0.12 mg/mL. Therefore Guanfacine-HCl was less soluble at pH 7.0 and 8.0 compared to pH levels of 6.0 and lower.

## N=C(N)NC(=O)Cc1c(Cl)cccc1Cl [Guanfacine]
[1]; 1.0 mg/mL in WFI, 1:25 dilution of Guanfacine to Ropivacaine
  compatibility with Ropivacaine: compatible with Ropivacaine
[1]; 0.1 mg/mL
  Particulate Matter 10 μm: 0 Particles per mL
  Particulate Matter 25 μm: 0 Particles per mL
[1]; 1 mg/mL
  Particulate Matter 10 μm: 6 Particles per mL
  Particulate Matter 25 μm: 0 Particles per mL
[1]; nominal 0.1 mg/mL
  concentration of Guanfacine freebase in the WFI control: 100 µg/mL
[1]; nominal 1.0 mg/mL
  concentration of Guanfacine freebase in the WFI control: 1050 µg/mL
[2]; 0.5 mg/mL in WFI in IV bags, pH 5.0, time zero, RRT 1.00
  Area % of guanfacine peak (peak 1): 99.94%
[2]; 0.5 mg/mL in WFI in IV bags, pH 5.0, time zero, RRT 8.77
  Area % of peak 2 (degradation product): 0.06%
[2]; 0.5 mg/mL in WFI in vials, pH 5.7, 24 hours, RRT 1.31
  Area % of peak 2: 0.02%
[2]; 0.5 mg/mL in WFI in vials, pH 5.7, 72 hours, RRT 1.32
  Area % of peak 2: 0.01%
[2]; 0.5 mg/mL in WFI in vials, pH 5.7, 72 hours, RRT 4.31
  Area % of peak 3: 0.01%
[2]; 0.5 mg/mL in WFI in vials, pH 5.7, time zero, RRT 1.00
  Area % of guanfacine peak (peak 1): 99.94%
[2]; 0.5 mg/mL in WFI in vials, pH 5.7, time zero, RRT 1.31
  Area % of peak 2: 0.01%
[2]; 0.5 mg/mL in WFI in vials, pH 5.7, time zero, RRT 8.58
  Area % of peak 4 (degradation product): 0.05%
[2]; water, 0.5 mg/mL in WFI in IV bags, pH 5.0, 24 hours, RRT 1.00, read-out: Area % of guanfacine peak (peak 1)
  remaining at 24 h: 99.8%
[2]; water, 0.5 mg/mL in WFI in IV bags, pH 5.0, 24 hours, RRT 8.79, read-out: Area % of peak 2 (degradation product)
  degraded at 24 h: 0.15%
[2]; water, 0.5 mg/mL in WFI in IV bags, pH 5.0, 72 hours, RRT 1.00, read-out: Area % of guanfacine peak (peak 1)
  remaining at 72 h: 99.8%
[2]; water, 0.5 mg/mL in WFI in vials, pH 5.7, 24 hours, RRT 1.00, read-out: Area % of guanfacine peak (peak 1)
  remaining at 24 h: 99.9%
[2]; water, 0.5 mg/mL in WFI in vials, pH 5.7, 24 hours, RRT 8.58, read-out: Area % of peak 4 (degradation product)
  degraded at 24 h: 0.1%
[2]; water, 0.5 mg/mL in WFI in vials, pH 5.7, 72 hours, RRT 1.00, read-out: Area % of guanfacine peak (peak 1)
  remaining at 72 h: 99.8%
[2]; water, IV bags, pH 5.0, 72 hours at room temperature, read-out: degradation product formed
  degraded at 72 h: 0.16%
[2]; water, glass vials, pH 4.5, one week at room temperature, 1.14 mg/mL, read-out: degradation product formed
  degraded at 168 h: 0.26%
[2]; water, vials, pH 5.7, 72 hours at room temperature, read-out: degradation product formed
  degraded at 72 h: 0.23%
[3]; pH 7.0, 1 mg/mL
  dissolution at 1 mg/mL: did not completely dissolve

## N=C(N)NC(=O)Cc1c(Cl)cccc1Cl [Guanfacine-HCl, N-amidino-2-(2,6-dichlorophenyl) acetamide monohydrochloride]
[2]; 1.14 mg/mL Guanfacine-HCl in WFI, pH 4.5, glass vials, 1 week, RRT 1.44
  Area % of peak 2: 0.02%
[2]; 1.14 mg/mL Guanfacine-HCl in WFI, pH 4.5, glass vials, 1 week, RRT 8.72, 10080 min
  Area % of peak 3 (degradation product): 0.26%
[2]; 1.14 mg/mL Guanfacine-HCl in WFI, pH 4.5, glass vials, time zero, RRT 1
  Area % of guanfacine peak (peak 1): 99.98%
[2]; 1.14 mg/mL Guanfacine-HCl in WFI, pH 4.5, glass vials, time zero, RRT 1.45
  Area % of peak 2: 0.02%
[2]; water, 1.14 mg/mL Guanfacine-HCl in WFI, pH 4.5, glass vials, 1 week, RRT 1, read-out: Area % of guanfacine peak (peak 1)
  remaining at 168 h: 99.7%
[3]; pH 7.0 and 8.0
  solubility compared to pH levels of 6.0 and lower: less soluble
[3]; pH 7.0 and pH 8.0 samples (both), after 1 hour of sonication
  appearance of solution: cloudy and contained precipitate
[3]; pH 7.0, sodium phosphate, after 1 hour of sonication
  solubility at 1 h: ~350 µg/mL
[3]; pH 8.0, sodium phosphate, after 1 hour of sonication
  solubility at 1 h: ~120 µg/mL
